Structures can show the parent of a compound that is named as a salt.
Assays:
[1] = system: phosphorylation of IRF3 in THP-1 cells; test: western blot of STING downstream signalling; assay type: cell-based, human; conditions: cGAMP (1 μg/mL) then 18p, 6 h
Description: (§1) To evaluate whether 18p induced desired immune response via activation of STING pathway, we investigated the activation of downstream effector proteins, IRF3 and STAT1 that were known as major regulatory proteins of STING and IFN-β, respectively.
(§2) Figure 6. Western blot analysis for STING downstream signalling pathway. THP-1 cells were treated with cGAMP (1 μg/mL) first, and then treated with either DMSO or 18p at indicated concentration for 6 h. Tubulin was used as a loading control.
(§3) Cells were washed by PBS and harvested with RIPA buffer (Bioseasang). After centrifugation with 20,000 × g for 20 min at 4 °C. Cell lysates were separated by SDS-polyacrylamide gel electrophoresis and transferred on PVDF membranes through the Trans-Blot Turbo Transfer System (Bio-Rad). The membranes were blocked in 5% BSA in TBST for 1 h at room temperature and followed by incubation with primary antibody solution for overnight. […] After washing with TBST, all antibodies were detected by anti-rabbit-HRP-linked secondary antibody (Cell signalling/no. 7074, 1:3000). β-Tubulin was used as a loading control for the amount of total protein. Luminescence signal was detected using ECL reagent and immunoreactive bands were captured with the ChemiDoc imaging systems (Bio-Rad).

[2] = system: phosphorylation of STAT1 in THP-1 cells; test: western blot of STING downstream signalling; assay type: cell-based, human; conditions: cGAMP (1 μg/mL) then 18p, 6 h
Description: as §1, §2, §3

CYP2C9 = CYP2C9 (Homo sapiens, UniProt P11712); test: CYP inhibition profile; assay type: in vitro ADME; conditions: compound 10 μM
Chain of CYP2C9 (P11712 whole entry): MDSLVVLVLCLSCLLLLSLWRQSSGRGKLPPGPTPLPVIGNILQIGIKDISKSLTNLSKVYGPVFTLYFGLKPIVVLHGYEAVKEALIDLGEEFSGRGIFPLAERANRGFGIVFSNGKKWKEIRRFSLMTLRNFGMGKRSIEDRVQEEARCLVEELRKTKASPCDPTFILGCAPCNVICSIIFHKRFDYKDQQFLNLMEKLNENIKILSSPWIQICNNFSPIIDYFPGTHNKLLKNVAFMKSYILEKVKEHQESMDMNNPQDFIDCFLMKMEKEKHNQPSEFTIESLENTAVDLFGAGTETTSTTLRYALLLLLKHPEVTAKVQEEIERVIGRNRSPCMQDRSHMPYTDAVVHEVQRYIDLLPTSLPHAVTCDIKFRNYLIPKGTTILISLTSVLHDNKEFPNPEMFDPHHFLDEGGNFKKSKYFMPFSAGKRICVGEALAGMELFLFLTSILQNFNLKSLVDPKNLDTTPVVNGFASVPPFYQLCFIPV
Description: Table 3. CYP inhibition profile. | column: % inhibition / CYP2C9

[3] = liver microsomal stability; assay type: in vitro ADME, mouse; conditions: % remaining during 30 min at 1 µM
[4] = body weight in 4T1 syngeneic mouse tumour model; assay type: in vivo, BALB/c mice; conditions: 40 mg/kg orally once daily, two weeks, 4T1 tumour-bearing mice
Description: Thus, we evaluated the anti-cancer efficacy in the 4T1 syngeneic mouse tumour model to test the therapeutic potential of 18p. We postulated the marginal amount of cGAMP released by tumour could initiate the synergy effect of 18p, then administrated the compound by single-treatment[5]. After 4T1 tumour cells were implanted and grown in the flank of mice, 18p was orally administered (40 mg/kg) once daily and monitored the tumour volume and body weight of each mouse.
Figure 7. 4 × 10^5 of 4T1 cells were subcutaneously inoculated into right side flank of BLAB/c mice (n = 6). Mice were orally administrated by 18p (40 mg/kg) or vehicle by every day. (a) Tumour growth curve of 18p or vehicle. X-axis indicates days after treatment. (b) Tumour growth (%) on day 14. (c) Body weight of 18p or vehicle. X-axis indicates days after treatment. Statistics for tumour volume and tumour growth were analysed by 2way ANOVA and student t-test. *p < 0.05. **p < 0.01. Graphs are depicted by mean and SD.
The study for murine 4T1 […] was approved by the Institutional Animal Care and Use Committee (IACUC) of the Korea Institute of Science and Technology (KIST-2021–04-048). Female BALB/c mice were 8 weeks obtained from DBL (Korea). […] Tumour volume was calculated by following formula: Tumour volume (mm^3) = 0.5 × [length, (mm) × width, (mm)2].

CYP2D6 = CYP2D6 (Homo sapiens, UniProt P10635); test: CYP inhibition profile; assay type: in vitro ADME; conditions: compound 10 μM
Chain of CYP2D6 (P10635 whole entry): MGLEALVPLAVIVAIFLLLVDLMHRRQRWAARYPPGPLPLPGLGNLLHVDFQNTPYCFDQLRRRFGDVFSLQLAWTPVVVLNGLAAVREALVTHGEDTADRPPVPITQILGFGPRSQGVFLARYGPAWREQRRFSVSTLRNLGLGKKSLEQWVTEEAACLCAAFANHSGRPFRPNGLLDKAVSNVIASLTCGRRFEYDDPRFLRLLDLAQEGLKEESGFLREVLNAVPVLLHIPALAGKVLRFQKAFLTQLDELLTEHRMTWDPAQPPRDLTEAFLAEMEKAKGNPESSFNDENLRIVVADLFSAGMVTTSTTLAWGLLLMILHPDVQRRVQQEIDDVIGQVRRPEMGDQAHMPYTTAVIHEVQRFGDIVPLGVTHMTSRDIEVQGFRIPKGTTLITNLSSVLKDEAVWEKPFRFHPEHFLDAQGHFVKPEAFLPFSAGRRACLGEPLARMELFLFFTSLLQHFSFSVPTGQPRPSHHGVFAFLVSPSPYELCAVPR
Description: Table 3. CYP inhibition profile. | column: % inhibition / CYP2D6

CYP2C19 = CYP2C19 (Homo sapiens, UniProt P33261); test: CYP inhibition profile; assay type: in vitro ADME; conditions: compound 10 μM
Chain of CYP2C19 (P33261 whole entry): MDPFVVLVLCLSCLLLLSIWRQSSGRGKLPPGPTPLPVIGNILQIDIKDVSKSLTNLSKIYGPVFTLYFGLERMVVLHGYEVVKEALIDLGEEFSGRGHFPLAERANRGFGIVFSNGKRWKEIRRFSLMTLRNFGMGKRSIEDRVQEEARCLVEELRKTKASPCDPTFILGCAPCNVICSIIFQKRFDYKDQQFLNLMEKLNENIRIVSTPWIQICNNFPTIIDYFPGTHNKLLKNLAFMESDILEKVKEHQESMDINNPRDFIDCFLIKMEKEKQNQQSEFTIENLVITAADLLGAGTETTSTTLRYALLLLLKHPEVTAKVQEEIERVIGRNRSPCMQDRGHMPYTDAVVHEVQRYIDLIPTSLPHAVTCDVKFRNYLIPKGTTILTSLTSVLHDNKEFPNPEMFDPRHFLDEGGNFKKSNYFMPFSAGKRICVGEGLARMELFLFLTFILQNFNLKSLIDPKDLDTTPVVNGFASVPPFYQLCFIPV
Description: Table 3. CYP inhibition profile. | column: % inhibition / CYP2C19

[5] = system: IFN-β secretion in THP-1 cells; test: IFN-β cytokine release by ELISA; conditions: co-treatment with cGAMP, 8 h
Description: (§4) Extracellular secretion of IFN-β and IP-10 was measured by enzyme-linked immunosorbent assay (ELISA).
(§5) THP-1 cells were seeded in 96 well plate and treated with the compounds for 8 h incubation. 100 μL of cell culture supernatant was harvested and analysed using manufactural protocols.

[6] = system: IP-10 secretion in THP-1 cells; test: IP-10 cytokine secretion by ELISA; conditions: co-treatment with cGAMP, 8 h
Description: as §4, §5

[7] = liver microsomal stability; assay type: in vitro ADME, human; conditions: % remaining during 30 min at 1 µM
CYP3A4 = CYP3A4 (Homo sapiens, UniProt P08684); test: CYP inhibition profile; assay type: in vitro ADME; conditions: compound 10 μM
Chain of CYP3A4 (P08684 whole entry): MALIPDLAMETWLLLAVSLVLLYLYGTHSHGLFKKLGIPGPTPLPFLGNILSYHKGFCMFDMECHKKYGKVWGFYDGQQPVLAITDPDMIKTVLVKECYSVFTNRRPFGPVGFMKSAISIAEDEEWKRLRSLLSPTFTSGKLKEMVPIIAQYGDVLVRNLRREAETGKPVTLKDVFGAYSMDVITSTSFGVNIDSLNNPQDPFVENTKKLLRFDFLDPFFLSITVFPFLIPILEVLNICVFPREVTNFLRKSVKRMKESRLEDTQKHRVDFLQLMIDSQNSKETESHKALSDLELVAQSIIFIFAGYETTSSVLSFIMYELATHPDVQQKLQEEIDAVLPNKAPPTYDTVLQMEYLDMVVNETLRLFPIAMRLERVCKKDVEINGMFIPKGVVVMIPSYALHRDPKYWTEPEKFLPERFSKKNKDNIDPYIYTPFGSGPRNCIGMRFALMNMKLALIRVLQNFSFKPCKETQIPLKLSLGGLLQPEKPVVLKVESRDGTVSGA
Description: Table 3. CYP inhibition profile. | column: % inhibition / CYP3A4

[8] = system: ISRE-mediated reporter gene induction in THP-1 cells; test: ISRE/IRF luciferase reporter assay in THP-1 dual cells with cGAMP; conditions: co-treatment with cGAMP (1 μg/mL), 24 h
[9] = system: interferon stimulated genes (ISG) CXCL10, OAS1, IFITM1 in THP-1 cells; test: real-time PCR of interferon stimulated genes; assay type: cell-based, human; conditions: co-treatment with cGAMP, 4 h, normalized by GAPDH
Description: Next, we further explored type I IFN response induced by activation of STING signalling. The gene expression for various interferon stimulated genes (ISGs) such as CXCL10, OAS1, and IFITM1 was analysed by real-time PCR.
Figure 5. Real-time PCR analysis for gene expression of various interferon stimulated genes (ISG), CXCL10, OAS1, and IFITM1. THP-1 cells were stimulated by indicated concentration of 18p for 4 h. The relative gene expression level was normalized by GAPDH as an internal standard. Graphs depict mean and RQ max values.
Cells were harvest and RNA were isolated using NucleoSpin RNA plus (MN) according to the manufacturer’s instructions. Genomic DNA was removed and cDNA was synthesised using an iScript gDNA clear cDNA synthesis kit (Bio-Rad). Expression levels were assessed by real-time PCR (CFX96 Real-Time PCR detection system, Bio-rad) using IQ SYBR green Supermix (Bio-Rad). The mRNA levels were normalized by GAPDH and calculated by comparative Ct method.

- % inhibition CYP2C9 (CYP2C9): 0.0%
- Microsomal stability (%) Mouse [3]: 83%
- % inhibition CYP2D6 (CYP2D6): 0.5%
- % inhibition CYP2C19 (CYP2C19): 10.3%
- Microsomal stability (%) Human [7]: 93%
- % inhibition CYP3A4 (CYP3A4): 8.9%
SMILES: CC1(CNS(N)(=O)=O)CCN(c2ncnc3[nH]ccc23)CC1 [18p, N-((4-Methyl-1-(7H-pyrrolo[2,3-d]pyrimidin-4-yl)piperidin-4-yl)methyl)methanesulfamide hydrochloride]
- phosphorylation of IRF3 [1]: increased phosphorylation of IRF3 and STAT1 was observed in dose-dependent manner
- phosphorylation of STAT1 [2]: increased phosphorylation of IRF3 and STAT1 was observed in dose-dependent manner
- body weight [4]: no weight loss
- IFN-β cytokine release [5]: secreted more cytokine than with cGAMP alone
- IP-10 cytokine secretion [6]: secreted more cytokine than with cGAMP alone
- cGAMP-induced ISRE activation (luciferase signal) [8]: clearly increased the cGAMP-induced ISRE activation in dose-dependent manner
- gene expression of interferon stimulated genes (CXCL10, OAS1, IFITM1) [9]: induced expression of all ISG genes we tested

From publication PMC9467556, “Identification of novel pyrrolopyrimidine and pyrrolopyridine derivatives as potent ENPP1 inhibitors” (Journal of Enzyme Inhibition and Medicinal Chemistry, 2022)
